{"source": "paper PMC12003248", "about": "“ERCC6L2 mitigates replication stress and promotes centromere stability” (Cell Reports, 2023)", "molecules": {"B1": {"name": "GST-tagged ERCC6L2^753−819: GST-tagged ERCC6L2 fragment (residues 753–819) expressed in E. coli (protein)", "chain": "AAEPLAKEACDLCSDFSDEEPVGATGIKTAKNKAPDSSKASSSPGQLTLLQCGFSKLLETKCKAVED", "modifications": "left off: GST, end not stated, kept", "notes": "GST-tagged ERCC6L2 fragment (residues 753–819) expressed in E. coli"}}, "key": {"[1]": {"system": "control and ERCC6L2^−/− cells", "assay": "Nascent DNA degradation assay (DNA combing)", "assay_type": "cell-based, human", "details": "3 mM hydroxyurea, 4 h; IdU/CldU track ratio; N(tracks)>700", "protocol": "Control and ERCC6L2^−/− cells were labeled with 100 μM CldU, followed by 100 μM IdU in the presence of 10 μM Polα inhibitor CD437. Each pulse lasted 40 min. Cells were then trypsinised and embedded in agarose plugs using a kit from Genomic Vision according to the manufacturer’s instructions. DNA was extracted and purified from the agarose plugs, and stretched onto silanised coverslips with the molecular combing system (Genomic Vision). CldU was detected with rat anti-BrdU antibody (Abcam, BU1/75) and Alexa Fluor 594 conjugated secondary antibody (Thermo Fisher Scientific). ldU was detected with mouse anti-BrdU antibody (Becton Dickinson, BD44) and Alexa Fluor 488 conjugated secondary antibody (Thermo Fisher Scientific). […] More than 1500 tracks were analyzed per condition.\nFor nascent DNA degradation assay, cells were sequentially incubated with 100 μM CldU and 100 μM IdU. […] More than 700 tracks were analyzed per condition. […]\nError bars represent standard errors from 3 independent experiments. […] U2OS cells were transfected with YFP-ERCC6L2 constructs and monitored by live cell imaging following laser induced DNA damage. […]\n(F) Valida?on of siRNA against CTC1 and C20orf196. […] For BRCA1, RIF1, REV7, 53BP1, BLM and CtIP, cells were transfected as in F, and endogenous proteins were detected by speciﬁc an?bodies. […] Expression was detected by an?-FLAG or an?-GFP an?bodies, as indicated. […]"}, "His-tagged human PCNA [2]": {"system": "His-tagged human PCNA", "assay": "PCNA pull-down with biotinylated peptides", "assay_type": "binding", "details": "biotinylated peptide on streptavidin beads; purified His-tagged PCNA, 1 h at 4°C; 50 mM Tris-HCl pH 8, 150 mM NaCl, 1 mM DTT, 0.2% Triton X-; anti-PCNA western blot", "from_the_text": "(§1) Figure 4 ERCC6L2 contains an atypical PCNA-binding motif (A) ERCC6L2 colocalizes with PCNA at CENP-C-negative foci. U2OS cells transfected with YFP-ERCC6L2 were stained for CENP-C and PCNA after pre-extraction of soluble proteins. ERCC6L2-and PCNA-positive, but CENP-C negative foci (red arrows) are marked in zoomed images. (B) ERCC6L2 colocalizes with RPA at CENP-C-negative foci. U2OS cells transfected with YFP-ERCC6L2 were stained for CENP-C and RPA. ERCC6L2- and RPA-positive, but CENP-C-negative foci (red arrows) are marked in zoomed images. (C) Colocalization of the C-terminal ERCC6L2^701−1561 fragment with endogenous PCNA. (D) PCNA pull-down with biotinylated peptides. Biotinylated PIP-box and APIM motif peptides were bound to streptavidin beads and incubated with recombinant PCNA. Interactions were assayed by western blotting with PCNA antibody. Wild-type ZRANB3 PIP-box peptide (ZRANB3 PIP) was used as a positive control. Mutant ZRANB3 PIP-box peptide (Q519A, F525A, and F526A, ZRANB3 PIP^∗) served as a negative control. […] Interactions were assessed by western blotting against PCNA (shown on the right). […]\nCustom synthetic biotinylated peptides were synthetised by Genscript and dissolved in 50 mM Tris-HCl pH 8, 150 mM NaCl. […] Finally, the beads were boiled in the SDS-PAGE loading buffer, and analyzed by anti-PCNA Western blotting (1:1000 dilution)."}, "laser-induced DNA breaks": {"system": "laser-induced DNA breaks", "assay": "Recruitment to laser-induced DNA breaks", "assay_type": "cell-based, human", "details": "U2OS cells, 405 nm laser, 10 μM BrdU 16 h", "protocol": "U2OS cells were grown in glass-bottomed 24 well plates and transfected with YFP-ERCC6L2 constructs using Lipofectamine 2000 (Life Technologies). Transfected cells were then incubated with 10 μM BrdU for 16 h at 37°C. Laser microirradiation was carried out on an Olympus FV1200 confocal microscope equipped with an environmental chamber. Localised DNA damage was induced in cells showing YFP-tagged protein expression using a 405 nm laser. Recruitment of the proteins was monitored by live cell imaging at 488 nm."}, "endogenous PCNA": {"system": "endogenous PCNA", "assay": "Colocalization of YFP-ERCC6L2 constructs with endogenous PCNA", "assay_type": "cell-based, human", "details": "YFP-tagged, U2OS cells", "from_the_text": "as §1\nU2OS cells (ATCC) were grown in 24 well plates. […] Samples were analyzed by confocal microscopy using Olympus FV1200 or Zeiss 880 Airyscan microscopes, or using EVOS M7000 Imaging System. […]"}, "His-tagged human PCNA [3]": {"system": "His-tagged human PCNA", "assay": "PCNA pull-down with GST-tagged fragment", "assay_type": "binding", "details": "GST-tagged fragment on GST beads, 1 h at 4°C, 50 mM Tris-HCl pH 8, 150 mM NaCl, 1 mM DTT, 0.2% Triton X-, western blot"}}, "note": "Where no end group is shown, it is not given here."}
{"molecule": "NC(=O)NO", "note": "[hydroxyurea]", "values": [{"measurement": "nascent DNA protection, control vs ERCC6L2^−/−", "setting": "[1]", "value": "did not observe significant differences in nascent DNA protection"}]}
{"molecule": "ERCC6L2^790−811 peptide: atypical ERCC6L2 peptides (residues 790–811) containing the WT sequence (LLQCGFSKLLETKCKAVEDSDG; cysteine pairing not given here; also: biotinylated, position not given here; UniProt Q5T890 790-811, looked up, fragment)", "values": [{"measurement": "interaction with PCNA, pull-down", "setting": "His-tagged human PCNA [2]", "value": "comparable to the one observed with the classical PIP-box peptide from ZRANB3"}]}
{"molecule": "full-length ERCC6L2: full-length human ERCC6L2, YFP-tagged", "values": [{"measurement": "mobilization to laser-induced DNA breaks", "setting": "laser-induced DNA breaks", "value": "efficient mobilization"}, {"measurement": "colocalization with endogenous PCNA", "setting": "endogenous PCNA", "value": "largely absent from PCNA foci in S-phase cells"}]}
{"molecule": "B1", "values": [{"measurement": "interaction with PCNA, GST pull-down", "setting": "His-tagged human PCNA [3]", "value": "The interaction with PCNA could be demonstrated"}]}
